The values that follow come from patent US10966994B2, “Thromboxane receptor antagonists” (ATXA THERAPEUTICS LIMITED, priority 2015, dated 2021).

In the experiment the test system is MCT-induced PAH. Description: Monocrotoline (MCT)-induced model of pulmonary arterial hypertension (PAH) in rats. The format is in vivo, rat. To be noted: day 28, oral BID, NTP42 and TP20 0.25 mg/kg/dose, Sildenafil 50 mg/kg/dose. As for the experimental part: FIGS. 19-23 show the efficacy of NTP42 in the monocrotoline (MCT)-induced model of pulmonary arterial hypertension (PAH) in rats. In brief, male Wistar/Kyoto rats were given a single dose of MCT (60 mg/kg, subcutaneously) and then treated with twice daily doses (oral dosing) for 28 days with either the drug vehicle, the test article NTP42 (0.25 mg/kg/dose, BID) or with the reference compounds Sildenafil (50 mg/kg/dose, BID) or TP20 (0.25 mg/kg/dose, BID). As a control, a group of rats were left untreated, i.e., no MCT or therapeutic drugs. At Day 28, post-MCT induction, rats were anaesthetised for cardiac surgery & hemodynamic parameters recorded. Thereafter, the trachea, heart & lungs were removed en masse, the wet weights of the heart & lungs recorded and then the lungs were harvested, fixed and processed for histopathology.
Aperio's ImageScope was used to analyze the digitally scanned H&E stained lung sections, where 10 random squares (approx. size or each square=1×10^6 μm^2) per lower, middle and upper section of lung tissue were selected for analysis. Within each square, all blood arterioles (complete arterioles within each square and those touching the right & bottom were assessed but not the left or top of the squares) were measured in ImageScope for luminal and total vessel diameter where the ratio of lumen to total vessel diameter was determined for each arteriole.
FIGS. 24-27 show the effect of the test articles on the mean (±S.E.M.) lumen: total vessel diameter ratio for all arterioles (Total) and the arterioles categorized by size: small, <50 μm total diameter; medium, 50-100 μm and large, >100 μm.
FIG. 27 presents data representing the mean (±SEM) lumen: total vessel diameter ratio for large arterioles (>100 μm).

`CCCc1nn(C)c2c(=O)[nH]c(-c3cc(S(=O)(=O)N4CCN(C)CC4)ccc3OCC)nc12` [Sildenafil, reference compound]: the “lumen: total vessel diameter ratio versus animals treated with MCT-alone” value is on record as “significantly increased”.
